Like-named read-outs stand apart in the source and are kept apart here.
Key:
[1] = target: Full-length (FL)-PRMT5-MEP50 enzyme complex (Homo sapiens (Human), UniProt O14744); test: PRMT5-MEP50 Enzyme Methylation Assay; format: biochemical; as to Enzyme Methylation Assay IC50 1: top concentration 100000 nM
Protocol: PRMT5-MEP50 Enzyme Methylation Assay
PRMT5/MEP50 biochemical assay is a direct measurement of the methylation activity of the enzyme complex on a short peptide substrate derived from the N-terminus of H4 histone. The methylation experiment is performed with recombinant protein. The assessment of inhibitory effect (IC50) of small molecules is measured by the effectiveness of the compounds to inhibit this reaction.
To each well of a white ProxiPlus 384 well-plate, 100 nL of compound (1% DMSO in final assay volume of 10 μL) was dispensed, followed by the addition of 8 μL of 1× assay buffer (50 mM Bicine pH 8.0, 1 mM DTT, 0.004% Tween20, 0.01% BSA) containing 0.5 nM of Full-length (FL)-PRMT5-MEP50 enzyme complex (recombinant proteins from baculovirus-transfected Sf21 cells: FL-PRMT5; MW=[…] and FL-MEP50; MW=38614). Plates were sealed and placed in a 37° C. humidified chamber for 30 minutes pre-incubation with compounds. Subsequently, each reaction was initiated by the addition of 2 μL 1× assay buffer containing 75 nM biotinylated H4R3(Me1) peptide, and 15 μM S-(5′-Adenosyl)-L-Methionine Chloride (SAM). The final reaction in each well of 10 μL consists of 0.5 nM PRMT5-MEP50, 75 nM biotinylated-peptide, and 15 μM SAM. Methylation reactions were allowed to proceed for 150 minutes in a sealed plate at 37° C. Reactions were immediately quenched by the addition of 1 μL of 10% formic acid. Plates were then frozen and shipped to SAMDI™ Tech Inc. to determine the percent conversion from […]. IC50 values were determined by 7 parameters biphasic fit model plotting the percent product conversion vs. (Log10) compound concentrations.

PRMT5 = PRMT5 (Homo sapiens (Human), UniProt O14744); test: PRMT5 Cell Target Engagement (TE) Assay; format: cell-based; conditions: treated 3 days, nuclear SDMA by high content imaging, top concentration 10000 nM
Text: PRMT5 Cell Target Engagement (TE) Assay
The PRMT5 TE assay is a biomarker assay for identifying compounds that inhibit symmetric dimethylation of arginine (SDMA) of PRMT5 substrates. This assay detects symmetrically dimethylated nuclear proteins using high content imaging technology. Detection of the expression of symmetrically dimethylated nucleo proteins is through a mixture of primary rabbit monoclonal antibodies to SDMA (CST 13222), which in turn recognized by an Alexafluor 488 dye-conjugated anti-rabbit IgG secondary antibody. The IN Cell Analyzer 2200 measures nuclear Alexafluor 488 fluorescent dye intensity that is directly related to the level of expression of symmetrically dimethylated nuclear proteins at the single cell level. Nuclear AF488 dye intensities are compared to the mean value for DMSO treated cells […] to report percent of inhibition for each compound-treated well.
Each well of a BD falcon collagen coated black/clear bottom 384-well plate was seeded with 4000 MCF-7 cells and allowed to attach for 5 hours. Media from cell plate was removed at 0.5 mm above the bottom of the plate and replaced with 30 μL of fresh media containing 1.2× compounds in 0.1% DMSO. Cells were treated for 3 days in 37° C. CO2 incubator. On day 3, cells were fixed with Cytofix, permeablized with 0.4% Triton-X-100/Cytofix, and washed with D-PBS without Ca/Mg. Cells were blocked with Licor Odessey blocking reagent for one hour at room temperature, followed by incubation with anti-SDMA (1:1000) antibody at 4° C. overnight. 1 antibody was removed, followed by three washings with DPBS without Ca/Mg and 0.05% Tween20. Hoechst (5 μg/ml), Cell Mask deep stain (1:2000) and Alexa488-conjugated goat anti-rabbit IgG (2 μg/mL) was added for 1 hour at room temperature. A final washing step (three washes) was performed before sealing plate for imaging on In Cell Analyzer 2200. Images from analyzer were uploaded to Columbus (at WP) for image analysis. IC50 values were determined by 4 parameters robust fit of percent fluorescence units vs. (Log10) compound concentrations.

[2] = read-out: Enzyme Methylation Assay IC50_1
[3] = read-out: Enzyme Methylation Assay IC50_2
[4] = MCF-7 cells, read-out: TE Assay EC50

Full-length (FL)-PRMT5-MEP50 enzyme complex, sequence (O14744 whole entry): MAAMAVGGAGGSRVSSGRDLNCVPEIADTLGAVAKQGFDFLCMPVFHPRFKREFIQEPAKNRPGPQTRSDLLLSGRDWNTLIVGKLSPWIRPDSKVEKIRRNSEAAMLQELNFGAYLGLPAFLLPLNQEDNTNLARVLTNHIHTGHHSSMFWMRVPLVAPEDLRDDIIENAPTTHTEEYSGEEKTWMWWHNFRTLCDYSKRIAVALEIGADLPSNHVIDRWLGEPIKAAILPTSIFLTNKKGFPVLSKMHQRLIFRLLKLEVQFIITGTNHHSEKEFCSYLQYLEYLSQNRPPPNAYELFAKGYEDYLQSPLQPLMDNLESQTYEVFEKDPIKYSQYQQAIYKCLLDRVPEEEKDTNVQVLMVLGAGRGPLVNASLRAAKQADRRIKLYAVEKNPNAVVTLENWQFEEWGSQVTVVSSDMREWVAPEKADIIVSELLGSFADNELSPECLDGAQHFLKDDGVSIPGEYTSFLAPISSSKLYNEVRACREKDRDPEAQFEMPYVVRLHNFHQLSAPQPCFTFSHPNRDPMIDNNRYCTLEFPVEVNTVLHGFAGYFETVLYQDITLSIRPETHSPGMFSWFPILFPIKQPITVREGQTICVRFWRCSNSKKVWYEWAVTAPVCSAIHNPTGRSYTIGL
Full-length (FL)-PRMT5-MEP50 enzyme complex, sequence (Q9BQA1 whole entry partner): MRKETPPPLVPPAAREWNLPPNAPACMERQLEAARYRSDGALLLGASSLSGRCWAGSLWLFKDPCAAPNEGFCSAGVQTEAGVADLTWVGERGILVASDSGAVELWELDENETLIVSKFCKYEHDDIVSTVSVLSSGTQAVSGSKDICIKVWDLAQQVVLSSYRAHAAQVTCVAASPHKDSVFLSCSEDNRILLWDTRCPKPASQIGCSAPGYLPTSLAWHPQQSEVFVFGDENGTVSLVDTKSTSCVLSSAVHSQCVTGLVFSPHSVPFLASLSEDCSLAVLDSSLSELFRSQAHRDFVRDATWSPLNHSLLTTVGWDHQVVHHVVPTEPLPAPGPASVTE
PRMT5, sequence (O14744 whole entry): as the sequence (O14744 whole entry) above
PRMT5, sequence (Q9BQA1 whole entry partner): as the sequence (Q9BQA1 whole entry partner) above

| Compound | IC50 [1, 2] [nM] | IC50 [1, 3] [nM] | EC50 (PRMT5; [4]) [nM] | EC50 (PRMT5; TE Assay EC50, MCF-7 cells) [nM] |
| --- | --- | --- | --- | --- |
| CO[C@H]1C[C@H]2CC[C@@H](C1)N2C(=O)c1ccc2c(c1)C(C)(C)CN(C[C@H](O)[C@@H]1Cc3ccccc3CN1)C2=O [Example 24, 2-((S)-2-hydroxy-2-((S)-1,2,3,4-tetrahydroisoquinolin-3-yl)ethyl)-6-((1R,3S,5S)-3-methoxy-8-azabicyclo[3.2.1]octane-8-carbonyl)-4,4-dimethyl-3,4-dihydroisoquinolin-1(2H)-one] | 11.3 | 7500 | 2640 |  |
| CO[C@@H]1C[C@H]2CC[C@@H](C1)N2C(=O)c1ccc2c(c1)C(C)(C)CN(C[C@@H](O)[C@@H]1Cc3ccccc3CN1)C2=O [Example 25, 2-((R)-2-hydroxy-2-((S)-1,2,3,4-tetrahydroisoquinolin-3-yl)ethyl)-6-((1R,3S,5S)-3-methoxy-8-azabicyclo[3.2.1]octane-8-carbonyl)-4,4-dimethyl-3,4-dihydroisoquinolin-1(2H)-one] | 0.44 | 50.1 |  | 3.81 |
| CO[C@@H]1C[C@H]2CC[C@@H](C1)N2C(=O)c1ccc2c(c1)C(C)(C)CN(C[C@H](O)[C@@H]1Cc3ccccc3CN1)C2=O [Example 26, 2-((S)-2-hydroxy-2-((S)-1,2,3,4-tetrahydroisoquinolin-3-yl)ethyl)-6-((1R,3R,5S)-3-methoxy-8-azabicyclo[3.2.1]octane-8-carbonyl)-4,4-dimethyl-3,4-dihydroisoquinolin-1(2H)-one] | 24.3 | 14600 | 4630 |  |
| CC1(C)CN(C[C@@H](O)[C@@H]2Cc3ccccc3CN2)C(=O)c2ccc(C(=O)N3C4COC5C4OCC53)cc21 [Example 27, 6-(hexahydro-3,6-epiminofuro[3,2-b]furan-7-carbonyl)-2-((R)-2-hydroxy-2-((S)-1,2,3,4-tetrahydroisoquinolin-3-yl)ethyl)-4,4-dimethyl-3,4-dihydroisoquinolin-1(2H)-one] | 0.35 | 115 | 18.6 |  |
| CC1(C)CN(C[C@H](O)[C@@H]2Cc3ccccc3CN2)C(=O)c2ccc(C(=O)N3C4COC5C4OCC53)cc21 [Example 28, 6-(hexahydro-3,6-epiminofuro[3,2-b]furan-7-carbonyl)-2-((S)-2-hydroxy-2-((S)-1,2,3,4-tetrahydroisoquinolin-3-yl)ethyl)-4,4-dimethyl-3,4-dihydroisoquinolin-1(2H)-one] | 34.3 | 34300 | ≥ 10000 |  |
| CC1(C)CN(C[C@@H](O)[C@@H]2Cc3ccccc3CN2)C(=O)c2ccc(N3C(=O)C4CCC3CC4)cc21 [Example 29, 2-{(2R)-2-hydroxy-2-[(3S)-1,2,3,4-tetrahydroisoquinolin-3-yl]ethyl}-4,4-dimethyl-6-(3-oxo-2-azabicyclo[2.2.2]octan-2-yl)-3,4-dihydroisoquinolin-1(2H)-one] | 0.84 | 359 | 74.4 |  |
| O=C1c2ccc(C(=O)N3C4CCC3COC4)cc2CCN1CC(O)[C@@H]1Cc2ccccc2CN1 (stereo partly drawn) [Example 30, 2-{2-hydroxy-2-[(3S)-1,2,3,4-tetrahydroisoquinolin-3-yl]ethyl}-6-(3-oxa-8-azabicyclo[3.2.1]oct-8-ylcarbonyl)-3,4-dihydroisoquinolin-1(2H)-one] | 16.6 | 6280 | 869 |  |

Source: US11098059B2, “PRMT5 inhibitors” (Merck Sharp & Dohme Corp., priority 2017, dated 2021)
